Assay results reported in patent US11510886B2, “Metformin amino acid compounds and methods of using the same” (Laboratorios Silancs S.A. DE C.V., priority 2016, dated 2022).
“Also recorded” adds a separate entry of the source. Counter-ions that a name gives are not always drawn.

Assays:
C2C12 myotubes [1] = assay: Glucose concentration in C2C12 myotube culture medium; type: cell-based, Mice; settings: for glucose consumption in normoglycemia: glucose adjusted to 100 mg/100 mL, 10 mM (FIGS. 68A-B)
Method: FIG. 67. Hypoglycemic activity ex vivo. Glucose concentration in myocyte culture medium, treated with the control, SLN1, or SLN10. […]. The final glucose concentration in the culture medium was determined with a Glucocard (Arkray). […].
Glucose concentration in culture media was determined with a Glucocard (Arkray). […].
For this purpose, the evolution of glucose uptake was studied in the culture medium of myotubes in response to different molecules studied (FIG. 67).

LKB1 and GPBP = LKB1 and GPBP distribution in C2C12 myotubes (confocal microscopy); type: cell-based, Mice; settings: 10 mM, 3 hours (FIG. 71)
Method: FIG. 71. […] C2C12 cells were differentiated to myotubes for 5 days by incubation in DMEM medium, supplemented with 2% horse serum; […]. Cells were washed with PBS (3×5 minutes) and incubated with antibodies against mouse IgG, conjugated with Alexa Fluor 488, and against goat IgG, conjugated with Alexa Fluor 546 (Molecular Probes) for 1 hour at RM in the dark. In this and in the following Figures showing confocal microscopy of cell cultures, all antibodies used were diluted in blocking solution. After incubation with antibodies, cells were washed with PBS (3×5 minutes) and mounting medium (Dako) in glass slides. Preparations were visualized with confocal microscopy and obtained images were analyzed with the WCIF ImageJ software as to detect colocalization points between GPBP and LKB1. GPBP appears in green, LKB1 in red, and colocalization points indicating similar and corresponding expression levels in both proteins appear in white.

C2C12 myotubes [2] = assay: Glucose in C2C12 myotubes cultured with M1 macrophage conditioned medium; type: cell-based, Mice; settings: macrophages treated with 10 mM, glucose adjusted to 100 mg/100 mL (FIG. 95)
Method: FIG. 95. C2C12 myotubes, treated with a conditioned RAW264.7 M1 macrophages medium (stimulated with LPS and IFN-γ [M1]), accumulate glucose in the culture medium: SLN compounds reduce the “hyperglycemic” effect of the M1 medium. […]; then, the culture media were collected, and their glucose concentration adjusted to 100 mg/100 mL and used to culture C2C12 myoblasts that had been previously differentiated to myotubes in DMEM supplemented with 2% horse serum for 5 days. The glucose concentration in myotubes was determined at several times with a Glucocard (Arkray). C2C12 myotubes, cultured with conditioned media of non-stimulated (cells) macrophages, or similarly stimulated but not treated with a SLN (M1), were used as controls. The initial glucose levels (time 0) are used as a reference (100%) in each of the series.
[…]. Then the culture media were collected, their glucose concentration adjusted to 100 mg/100 mL and used to culture C2C12 myoblasts that had been previously differentiated to myotubes in DMEM supplemented with 2% horse serum for 5 days. The glucose concentration of the myotube cultures was determined at different times with Glucocard (Arkray). The controls used were the C2C12 cultured with media conditioned with no stimulated macrophages (cells) or with M1 conditioned media. The initial glucose levels (time 0) were used as a reference (100%) in each series.

(NZB×NZW) F1 mice = assay: Proteinuria and renal lupus in (NZB×NZW) F1 mice; type: in vivo; settings: for number of mice with a pathological grade above 3: kidneys at week 35 (FIG. 84)
Method: FIG. 81. Proteinuria evolution in (NZB×NZW) F1 mice, treated with a control, SLN1, and SLN10. […] Urine samples were taken periodically and protein concentration was determined. Proteinuria mean value (±SEM) for the mice groups mentioned above is shown in the graph. […] FIG. 82. Criteria used to determine the renal pathological grade in mice, by staining with haematoxylin-eosin.
FIG. 83. […] (NZB×NZW) F1 mice in the assay described in FIG. 81 were sacrificed at week 35; their kidneys were analyzed by staining with haematoxylin-eosin, and their pathological grade was estimated according to criteria in FIG. 82. The number of mice that developed low/moderate (<300 mg/dl) or high (>300 mg/dl) proteinuria at the end of the assay, classified according to their pathological grade, is shown.
FIG. 84. […] The renal pathological grade of each one of the mice in the assay described in FIG. 81, grouped according to treatment, is shown. Intermediate positions represent animals with renal lesions between the higher or lower grades.
FIG. 85. […] (NZB×NZW) F1 mice in the assay described in FIG. 81 were subjected to blood samples periodically, and antibodies titers (anti-ssDNA IgG) were determined using the Mouse anti-ssDNA ELISA kit (Alpha Diagnostic International), following the manufacturer's instructions. In the graph, the mean (±SEM) for each mice group over time is shown.
FIG. 86. cGPBP levels increase and decrease before the introduction of proteinuria in (NZB×NZW) F1 mice. […] Mean values (±SEM) for cGPBP in the mice groups during the indicated weeks.

GPBP = target: T1, GPBP (Homo sapiens, UniProt Q9Y5P4); assay: In vitro (auto)phosphorylation of recombinant FLAG-GPBP; type: biochemical; parameters: made in house; host or cells: Pichia pastoris; settings: for GPBP in vitro kinase activity (autophosphorylation): β-glycerophosphate phosphorylation solution pH 7.0, [γ-32P]ATP, autoradiography (FIG. 64)
T1 sequence (Q9Y5P4 1-624): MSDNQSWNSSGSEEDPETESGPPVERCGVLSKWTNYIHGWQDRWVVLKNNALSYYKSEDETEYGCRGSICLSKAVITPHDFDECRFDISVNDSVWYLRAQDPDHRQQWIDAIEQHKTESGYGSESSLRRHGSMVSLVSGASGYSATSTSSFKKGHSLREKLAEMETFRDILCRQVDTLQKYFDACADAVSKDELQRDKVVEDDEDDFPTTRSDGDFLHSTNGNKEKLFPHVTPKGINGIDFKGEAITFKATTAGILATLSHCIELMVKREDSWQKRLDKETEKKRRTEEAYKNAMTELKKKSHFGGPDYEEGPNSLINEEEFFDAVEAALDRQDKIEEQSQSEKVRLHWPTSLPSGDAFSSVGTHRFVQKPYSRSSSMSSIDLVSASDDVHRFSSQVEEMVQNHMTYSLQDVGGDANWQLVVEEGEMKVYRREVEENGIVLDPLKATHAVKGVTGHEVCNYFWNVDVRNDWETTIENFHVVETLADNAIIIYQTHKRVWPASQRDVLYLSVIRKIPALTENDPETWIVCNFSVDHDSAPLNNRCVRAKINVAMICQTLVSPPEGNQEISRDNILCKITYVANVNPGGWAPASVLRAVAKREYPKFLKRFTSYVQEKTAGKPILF
Method: FIG. 64. […]. Recombinant FLAG-GPBP, in similar quantities, expressed in yeast Pichia pastoris (Invitrogen) and purified with anti-FLAG resin (Sigma), as described above (Raya et al. J Biol Chem. 1999; […]. The reaction cocktails (25 μl) were incubated at 30° C. and stirred (350 rpm) for 15 minutes, then analyzed using PAGE standard procedures in the presence of SDS and β-mercaptoethanol, and electrotransferred to PVDF membrane (Immobilon P, Millipore). Membranes were then exposed to autoradiography (32P) and subsequently sent for incubation with anti-FLAG antibodies, peroxidase-labelled; ECL Prime (GE Healthcare) (WB anti-FLAG) was used for developing.
[…]. Then, electrophoresis in 10% polyacrylamide gel and electroblotting to PVDF membrane were applied. Autoradiography was applied to membranes by exposure to photographic films (Amersham Hyperfilm MP, GE Healthcare Lifesciences). After autoradiography, the membranes were blocked with 5% skimmed milk in TBST and incubated with anti-FLAG (Sigma) monoclonal antibodies and secondary antibodies against mouse IgG conjugated to peroxidase (Promega).

Compound | glucose consumption in normoglycemia (C2C12 myotubes [1]) | distribution of LKB1-GPBP aggregates (LKB1 and GPBP) | glucose concentration in myotubes kept in M1 macrophage-conditioned medium (C2C12 myotubes [2]; listed as SLN1, hydrochloride) | glucose concentration in myotubes kept in M1 macrophage-conditioned medium (C2C12 myotubes [2]; listed as metformin HCl, hydrochloride) | deaths ((NZB×NZW) F1 mice; from week 33 onwards) | number of mice with a pathological grade above 3 ((NZB×NZW) F1 mice) | GPBP in vitro kinase activity (autophosphorylation) (GPBP) | anti-hyperglycaemic activity (glucose in myotube medium) (C2C12 myotubes [1]; initial glucose 450 mg/100 mL, 10 mM, last 18 hours (FIG. 67), listed as SLN10) | distribution of LKB1-GPBP aggregates (LKB1 and GPBP; listed as SLN10) | glucose concentration in myotubes kept in M1 macrophage-conditioned medium (C2C12 myotubes [2]) | glucose concentration in myotubes kept in M1 macrophage-conditioned medium (C2C12 myotubes [2]; listed as SLN10) | proteinuria ((NZB×NZW) F1 mice; 100 mg/kg/day, IP 5 days from week 16, then oral in drinking water, vs control, listed as SLN10) | autoantibody (anti-ssDNA IgG) titers ((NZB×NZW) F1 mice; FIG. 85, Control vs. SLN10 p=0.0238) | circulating GPBP levels (cGPBP) ((NZB×NZW) F1 mice; plasma, before steady increase of proteinuria (FIG. 86)) | GPBP inhibition depending on reaction medium (GPBP; Na buffer: 25 mM Tris-HCl pH 7.4, 150 mM NaCl (FIG. 66)) | active ingredient concentration corresponding to 1 mM (GPBP; in vitro assays, pH 7.0, applicant's estimate) [µM] | GPBP in vitro kinase activity (autophosphorylation) (GPBP; listed as SLN10)
CN(C)C(=N)N=C(N)N [Metformin hydrochloride, metformin hydrochloride, reference compound] | equally induce glucose consumption | moved LKB1-GPBP aggregates from peripheral positions to areas around the nuclei | slowed progression towards “hyperglycemia” | slowed down the progression towards hyperglycemia | began to die | 7 | moderate activator |  |  |  |  |  |  |  |  |  | 
metformin lysinate | equally induce glucose consumption |  |  |  |  | 3 |  | greater effect than SLN1; also recorded: higher than that of compound SLN1 | seems to induce decolocalization in GPBP and LKB1; also recorded: delocalization of LKB1 and virtual absence of kinase in granular aggregates | reduced the glucose concentration to hypoglycemic levels | took them to “hypoglycemic” levels | most effective; also recorded: significantly less proteinuria; also recorded: reduced proteinuria | reduces antibodies titers; also recorded: reduced titers by half | showed no increase | inhibits GPBP in Na buffer | 8.6 | inhibits GPBP in vitro kinase activity; also recorded: kinase activity inhibitors
